Like-named read-outs stand apart in the source and are kept apart here.
Tests used:
Format in all cases: in vivo
[1] = test system: ulcers by cold and restraint; assay: ulcers by cold and restraint; conditions: Rattus norvegicus, po; os, 50% reduction of ulcers by cold and restraint; read-out: Antisecretory and antiulcer activity ED50 Restraint
Text: (§1) The pharmacological study of the antiulcer activity of the compounds, in accordance with the present invention, has been carried out determining the dose which inhibits the gastric acid secretion by 50% (ED50) in pylorus ligated rats (Shay rats) according to the method described by Shay et al., in Gastroenterology 26, 906, 1954, the dose which reduces by 50% (ED50) the indomethacin-induced ulcers according to the procedure described by Leet et al., in Arch. Int. Pharmacodyn. 191, 370, 1971 and the dose which reduces by 50% (ED50) the ulcers by cold and restraint according to the procedure described by Senay and Levine in Proc. Soc. Exp. Biol. Med. 124, 1221, 1967.

[2] = test system: indomethacin-induced ulcers; assay: indomethacin-induced ulcers; conditions: Rattus norvegicus, po; os, 50% reduction of indomethacin-induced ulcers; read-out: Antisecretory and antiulcer activity ED50 Indometacin
Text: as §1

gastric acid secretion = assay: inhibition of gastric acid secretion in pylorus ligated rats (Shay rats); conditions: Rattus norvegicus, po, os, 50% inhibition of gastric acid secretion, read-out: Antisecretory and antiulcer activity ED50 Shay
Text: as §1

[3] = test system: Passive Cutaneous Anaphylaxis; assay: Passive Cutaneous Anaphylaxis (PCA test) in the Rat; conditions: administered 5 minutes before the antigen
Method: The compounds of general formula (I) are all endowed with an extremely low toxicity (the DL50 per os in rats is higher than 1600 mg/kg for all the compounds) and they are rapidly absorbed through oral administration, so that the DE50 (the dosage capable of reducing the effects of the noxious stimulus by 50%) in the Passive Cutaneous Anaphylaxis Test in the rat is almost the same whether administered orally or intraperitoneally.
(a) Production of antiovalbumin reaginic serum. Male rats (COBS-CD) weighing 300 to 400 g, are immunized by intramuscular injection of 0.1 ml/kg of ovalbumin solution obtained by dissolving 20 mg of ovalbumin (Sigma) in 1 ml of saline and by intraperitoneal injection of 1 ml of pertussis vaccine (Abetin Sclavo). After eleven days the animals are killed, the blood collected and after one night at 4° C., centrifuged and sera stored at -20° C.
(b) PCA test--Male rats (COBS-CD) weighing 125 to 135 g were sensitized by two intradermal injections on the shaved back of 0.1 ml of anti-ovalbumin serum. After 24 hours, 25 mg/kg of ovalbumin and 25 mg/kg of Evans blue are injected intravenously and thirty minutes later the animals are killed, the skin of the back removed and the major and minor diameters of the two spots on the reflected skin are measured.

[4] = ip, intraperitoneal, read-out: PCA Test ED50 l.p.
[5] = po, os, read-out: PCA Test ED50 os

In the case of CCOC(=O)C(=O)Nc1cc(OC)ncn1 [Symbol 907], the ED50 [1] is reported as 12 mg/kg, the ED50 [2] is reported as 4.6 mg/kg and the ED50 (gastric acid secretion) is reported as 3.2 mg/kg. It also gave an ED50 [3, 4] of 32 mg/kg and an ED50 [3, 5] of 100 mg/kg.
With CCOC(=O)C(=O)Nc1cc(OC)nc(C)n1 [Symbol 913] the ED50 [1] was 15 mg/kg, the ED50 [2] was 4.2 mg/kg and the ED50 (gastric acid secretion) was 3.6 mg/kg. It also gave an ED50 [3, 4] of under 5 mg/kg and an ED50 [3, 5] of over 100 mg/kg.
CCOC(=O)C(=O)Nc1cc(OC)nc(-c2ccccc2)n1 [Symbol 921] gave an ED50 [1] of 25 mg/kg, an ED50 [2] of 15 mg/kg and an ED50 (gastric acid secretion) of 6.2 mg/kg. It also gave an ED50 [3, 4] of 30 mg/kg and an ED50 [3, 5] of 100 mg/kg.
Molecule CCOC(=O)C(=O)Nc1cc(OCCOC)nc(C)n1 [Symbol 923] has an ED50 [1] of 9 mg/kg, an ED50 [2] of 3.2 mg/kg and an ED50 (gastric acid secretion) of 4.1 mg/kg. It also gave an ED50 [3, 4] of 25 mg/kg and an ED50 [3, 5] of 70 mg/kg.
In the case of CCOC(=O)C(=O)Nc1cc(OCCOCc2ccccc2)nc(C)n1 [Symbol 927], the ED50 [1] is reported as 16 mg/kg, the ED50 [2] is reported as 14.8 mg/kg and the ED50 (gastric acid secretion) is reported as 6.4 mg/kg. For the same molecule, the ED50 [3, 4] was 23 mg/kg and the ED50 [3, 5] was 80 mg/kg.
Molecule CCOC(=O)C(=O)Nc1cc(SC)nc(C)n1 [Symbol 928] has an ED50 [1] of 14 mg/kg, an ED50 [2] of 2 mg/kg and an ED50 (gastric acid secretion) of 7.2 mg/kg. For the same molecule, the ED50 [3, 4] was 30 mg/kg and the ED50 [3, 5] was over 100 mg/kg.
In the case of CCOC(=O)C(=O)Nc1cc(SCCOC(=O)C(=O)OCC)nc(C)n1 [Symbol 929], the ED50 [1] is reported as 18 mg/kg, the ED50 [2] is reported as 22.2 mg/kg and the ED50 (gastric acid secretion) is reported as 8.4 mg/kg. It also gave an ED50 [3, 4] of 2.4 mg/kg and an ED50 [3, 5] of 18 mg/kg.
Molecule CCOC(=O)C(=O)Nc1cc(Cl)ncn1 [Symbol 931] has an ED50 [1] of 22 mg/kg, an ED50 [2] of 7.2 mg/kg and an ED50 (gastric acid secretion) of 6.3 mg/kg. It also gave an ED50 [3, 4] of 24 mg/kg and an ED50 [3, 5] of over 100 mg/kg.
CCOC(=O)C(=O)Nc1cc(OCCOC)ncn1 [Symbol 932, 4-carbethoxycarbonilamino-6-(β-methoxyethoxy)-pyrimidine] was tested, and the ED50 [1] was 7 mg/kg, the ED50 [2] was 3.2 mg/kg and the ED50 (gastric acid secretion) was 2.1 mg/kg. It also gave an ED50 [3, 4] of 10 mg/kg and an ED50 [3, 5] of 26 mg/kg.
With CCOC(=O)C(=O)Nc1ccncn1 [Symbol 933] the ED50 [1] was 10 mg/kg, the ED50 [2] was 4.7 mg/kg and the ED50 (gastric acid secretion) was 3.8 mg/kg. For the same molecule, the ED50 [3, 4] was 32 mg/kg and the ED50 [3, 5] was 96 mg/kg.
In the case of CCOC(=O)C(=O)Nc1cc(OC)nc(OC)n1 [Symbol 934], the ED50 [1] is reported as 11 mg/kg, the ED50 [2] is reported as 5.6 mg/kg and the ED50 (gastric acid secretion) is reported as 4.1 mg/kg. It also gave an ED50 [3, 4] of 25 mg/kg and an ED50 [3, 5] of over 100 mg/kg.
CCOC(=O)C(=O)Nc1cc(SCCOC(=O)C(=O)OCC)ncn1 [Symbol 940] gave an ED50 [1] of 8 mg/kg, an ED50 [2] of 3.6 mg/kg and an ED50 (gastric acid secretion) of 5.2 mg/kg. The ED50 [3, 4] was 12 mg/kg and the ED50 [3, 5] was 43 mg/kg.
In the case of CCOC(=O)CCCSc1cc(NC(=O)C(=O)OCC)ncn1 [Symbol 953], the ED50 [1] is reported as 12 mg/kg, the ED50 [2] is reported as 8.8 mg/kg and the ED50 (gastric acid secretion) is reported as 7.2 mg/kg. It also gave an ED50 [3, 4] of 3.2 mg/kg and an ED50 [3, 5] of 26 mg/kg.
CCOC(=O)C(=O)Nc1cc(SCCOC)nc(C)n1 [Symbol 955] was tested, and the ED50 [1] was 7 mg/kg, the ED50 [2] was 2.8 mg/kg and the ED50 (gastric acid secretion) was 2.3 mg/kg. The ED50 [3, 4] was 6.9 mg/kg and the ED50 [3, 5] was 25 mg/kg.
CCOC(=O)C(=O)Nc1cc(SCCOC)ncn1 [Symbol 957] was tested, and the ED50 [1] was 14 mg/kg, the ED50 [2] was 9.4 mg/kg and the ED50 (gastric acid secretion) was 6.2 mg/kg. It also gave an ED50 [3, 4] of 5.8 mg/kg and an ED50 [3, 5] of 23 mg/kg.
Work on CCOC(=O)C(=O)Nc1cc(OCCOCCOC)ncn1 [Symbol 963] yielded an ED50 [1] of 16 mg/kg, an ED50 [2] of 7.3 mg/kg and an ED50 (gastric acid secretion) of 6.1 mg/kg. For the same molecule, the ED50 [3, 4] was 6.2 mg/kg and the ED50 [3, 5] was 24 mg/kg.
CCOC(=O)C(=O)Nc1cc(SCCOCCOC)ncn1 [Symbol 965] showed an ED50 [1] of 17 mg/kg, an ED50 [2] of 6.1 mg/kg and an ED50 (gastric acid secretion) of 8.3 mg/kg. The ED50 [3, 4] was 7.3 mg/kg and the ED50 [3, 5] was 20 mg/kg.

— patent US4254126A, “4-Carbethoxy-carbonilamino-pyrimidines and a process for their preparation” (POLI Industria Chimica S.p.A., priority 1978, dated 1981)
